Reference: patent publication US20150206621A1, “Electrical Insulator Comprising An Organofluorine Compound And Method For Producing It” (priority 2012, published 2015)

Assay: toxicity / lethal concentration LC50
Type: in vivo

FC(F)(F)COC(F)(F)F [2,2,2-trifluoroethyl-trifluoromethyl ether]
risk for human toxicity (in words) (concluded from available results of mammalian HFC (hydrofluorocarbon) tests): low risk for human toxicity

O=C(C(F)(F)F)C(F)(C(F)(F)F)C(F)(F)F [C5-ketone, 1,1,1,3,4,4,4-heptafluoro-3-(trifluoromethyl)butan-2-one]
toxicity (in words) (in vivo): practically non-toxic

O=C(C(F)(F)C(F)(F)F)C(F)(C(F)(F)F)C(F)(F)F [C6-ketone, 1,1,1,2,4,4,5,5,5-Nonafluoro-2-(trifluoromethyl)pentan-3-one]
LC50 (in vivo): about 100'000 ppm
toxicity (in words) (in vivo): non-toxic
